SMILES strings stand for the structures.

Sequence of hNET (P23975 whole entry): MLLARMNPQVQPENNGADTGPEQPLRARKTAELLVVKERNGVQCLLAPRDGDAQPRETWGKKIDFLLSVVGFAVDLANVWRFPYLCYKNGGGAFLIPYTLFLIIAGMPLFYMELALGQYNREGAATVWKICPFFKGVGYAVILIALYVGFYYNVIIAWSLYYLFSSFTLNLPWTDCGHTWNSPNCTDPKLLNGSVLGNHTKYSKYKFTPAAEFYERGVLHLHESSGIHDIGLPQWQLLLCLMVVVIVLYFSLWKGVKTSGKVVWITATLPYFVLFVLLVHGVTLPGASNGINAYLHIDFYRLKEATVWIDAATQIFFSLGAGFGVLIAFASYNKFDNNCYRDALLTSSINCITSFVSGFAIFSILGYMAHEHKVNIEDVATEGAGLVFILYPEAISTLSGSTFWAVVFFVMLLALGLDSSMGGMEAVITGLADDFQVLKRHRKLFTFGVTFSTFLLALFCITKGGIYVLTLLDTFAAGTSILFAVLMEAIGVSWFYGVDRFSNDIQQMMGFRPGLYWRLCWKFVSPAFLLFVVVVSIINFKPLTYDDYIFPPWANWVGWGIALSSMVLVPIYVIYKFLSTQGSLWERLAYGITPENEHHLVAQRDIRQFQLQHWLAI
T3 sequence (P41595 whole entry): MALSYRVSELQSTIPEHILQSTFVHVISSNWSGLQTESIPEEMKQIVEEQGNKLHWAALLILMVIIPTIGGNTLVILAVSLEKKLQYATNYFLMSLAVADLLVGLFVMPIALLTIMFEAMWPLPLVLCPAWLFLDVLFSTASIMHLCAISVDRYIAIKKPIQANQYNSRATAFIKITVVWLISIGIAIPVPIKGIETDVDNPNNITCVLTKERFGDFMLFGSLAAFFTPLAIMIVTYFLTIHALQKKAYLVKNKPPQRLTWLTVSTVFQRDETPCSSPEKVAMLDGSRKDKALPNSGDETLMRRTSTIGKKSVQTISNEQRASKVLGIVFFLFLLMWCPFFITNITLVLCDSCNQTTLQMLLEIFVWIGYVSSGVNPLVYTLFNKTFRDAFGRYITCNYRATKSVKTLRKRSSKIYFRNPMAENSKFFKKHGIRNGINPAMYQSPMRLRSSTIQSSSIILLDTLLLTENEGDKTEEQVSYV

The target in one test is T1, rat TAAR1 (Rattus norvegicus, UniProt Q923Y9).
T1 construct: expressed in transfected cells; host or cells: HEK 293 (membrane preparation)
T1 sequence (Q923Y9 whole entry): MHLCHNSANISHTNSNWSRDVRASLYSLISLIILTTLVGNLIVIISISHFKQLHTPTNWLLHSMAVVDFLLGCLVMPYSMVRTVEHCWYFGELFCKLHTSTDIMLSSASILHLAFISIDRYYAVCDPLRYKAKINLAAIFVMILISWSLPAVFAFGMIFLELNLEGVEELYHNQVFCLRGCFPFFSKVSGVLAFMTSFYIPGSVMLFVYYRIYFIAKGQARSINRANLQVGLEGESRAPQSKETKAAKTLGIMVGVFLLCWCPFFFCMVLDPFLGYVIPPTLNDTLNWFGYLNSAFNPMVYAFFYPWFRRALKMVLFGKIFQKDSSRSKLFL
Description: Radioligand binding, rat TAAR1 ([3H]RO5166017).
Conditions: not given
What is called Ki is the equilibrium dissociation constant of an inhibitor or competing ligand from its target. Regarding `COc1cc(OCC(F)(F)F)c(OC)cc1CCN` [2C-O-22, 2,5-dimethoxy-4-(2,2,2-trifluoroethoxy)phenethylamine], the Ki came to 240 ± 60 nM.

In turn, `COc1cc(OCc2ccccc2)c(OC)cc1CCN` [2C-O-27, 4-benzyloxy-2,5-dimethoxyphenethylamine] had a Ki of 21 ± 3 nM.

Regarding `C=CCOc1cc(OC)c(CC(C)N)cc1OC` (stereo not shown) [MALM, 4-allyloxy-2,5-dimethoxyamphetamine], the “Higher rat TAAR1 affinity than TMA-2 (19) and MIPM (18)” value turned out to be 3 fold; the Ki was found to be 1100 ± 200 nM.

A further test deals with T2, α1A adrenergic receptor (Homo sapiens, UniProt P35348).
T2 construct: expressed in transfected cells; host or cells: Chinese hamster ovary cell line (membrane preparation)
T2 sequence (P35348 1-466): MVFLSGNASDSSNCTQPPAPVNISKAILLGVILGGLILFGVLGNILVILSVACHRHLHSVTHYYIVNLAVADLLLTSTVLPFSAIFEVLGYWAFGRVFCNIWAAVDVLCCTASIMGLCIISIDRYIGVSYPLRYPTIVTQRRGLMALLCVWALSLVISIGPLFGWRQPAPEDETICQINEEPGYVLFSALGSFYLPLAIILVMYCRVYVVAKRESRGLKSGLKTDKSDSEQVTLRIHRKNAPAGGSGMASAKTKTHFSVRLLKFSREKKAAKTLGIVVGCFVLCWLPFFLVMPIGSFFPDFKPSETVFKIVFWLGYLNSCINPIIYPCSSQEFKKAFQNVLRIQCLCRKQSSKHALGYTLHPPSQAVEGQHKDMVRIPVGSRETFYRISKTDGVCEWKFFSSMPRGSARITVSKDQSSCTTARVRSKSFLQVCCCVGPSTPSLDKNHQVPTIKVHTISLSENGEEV
Description: Radioligand binding, α1A adrenergic receptor ([3H]prazosin).
Conditions: not given
`COc1cc(OCC(F)(F)F)c(OC)cc1CCN` [2C-O-22, 2,5-dimethoxy-4-(2,2,2-trifluoroethoxy)phenethylamine] showed a Ki of more than 6500 nM.

`COc1cc(OCc2ccccc2)c(OC)cc1CCN` [2C-O-27, 4-benzyloxy-2,5-dimethoxyphenethylamine] had a Ki of more than 6500 nM.

With `C=CCOc1cc(OC)c(CC(C)N)cc1OC` (stereo not shown) [MALM, 4-allyloxy-2,5-dimethoxyamphetamine], the Ki is more than 6500 nM.

A further test has as its target hNET (Homo sapiens, UniProt P23975). As to the kind of experiment: Radioligand binding, NET (N-methyl-[3H]nisoxetine).
Conditions: not given
Also noted: expressed in transfected cells; host or cells: HEK 293 (membrane preparation).
`COc1cc(OCC(F)(F)F)c(OC)cc1CCN` [2C-O-22, 2,5-dimethoxy-4-(2,2,2-trifluoroethoxy)phenethylamine]: the Ki is more than 9700 nM.

`COc1cc(OCc2ccccc2)c(OC)cc1CCN` [2C-O-27, 4-benzyloxy-2,5-dimethoxyphenethylamine]: the Ki is more than 9700 nM.

`C=CCOc1cc(OC)c(CC(C)N)cc1OC` (stereo not shown) [MALM, 4-allyloxy-2,5-dimethoxyamphetamine] showed a Ki of more than 9700 nM.

The next test deals with hDAT (Homo sapiens, UniProt Q01959). Description: Radioligand binding, DAT ([3H]WIN35,428). Also noted: expressed in transfected cells; host or cells: HEK 293 (membrane preparation).
Sequence of hDAT (Q01959 whole entry): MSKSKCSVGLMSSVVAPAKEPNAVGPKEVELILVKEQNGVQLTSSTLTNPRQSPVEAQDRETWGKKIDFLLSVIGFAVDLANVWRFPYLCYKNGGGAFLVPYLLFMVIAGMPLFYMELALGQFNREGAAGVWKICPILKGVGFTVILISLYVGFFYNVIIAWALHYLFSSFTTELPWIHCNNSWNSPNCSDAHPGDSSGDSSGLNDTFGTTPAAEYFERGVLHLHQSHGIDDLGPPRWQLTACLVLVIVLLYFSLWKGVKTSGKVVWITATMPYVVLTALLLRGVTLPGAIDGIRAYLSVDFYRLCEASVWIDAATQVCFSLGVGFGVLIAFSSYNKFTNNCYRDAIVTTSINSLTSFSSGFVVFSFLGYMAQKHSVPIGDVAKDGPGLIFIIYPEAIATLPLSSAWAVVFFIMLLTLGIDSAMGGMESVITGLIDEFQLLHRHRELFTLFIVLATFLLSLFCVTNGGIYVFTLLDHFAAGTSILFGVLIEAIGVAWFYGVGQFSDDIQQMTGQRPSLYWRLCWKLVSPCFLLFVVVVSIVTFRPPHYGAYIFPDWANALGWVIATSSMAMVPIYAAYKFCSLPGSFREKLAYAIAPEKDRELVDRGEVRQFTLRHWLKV
Conditions: not given
The molecule `COc1cc(OCC(F)(F)F)c(OC)cc1CCN` [2C-O-22, 2,5-dimethoxy-4-(2,2,2-trifluoroethoxy)phenethylamine] had a Ki of more than 8700 nM.

For the molecule `COc1cc(OCc2ccccc2)c(OC)cc1CCN` [2C-O-27, 4-benzyloxy-2,5-dimethoxyphenethylamine], the Ki came out at 6100 ± 400 nM.

The molecule `C=CCOc1cc(OC)c(CC(C)N)cc1OC` (stereo not shown) [MALM, 4-allyloxy-2,5-dimethoxyamphetamine] displayed a Ki of more than 8700 nM.

A further test concerns the target T3, human 5-HT2B receptor (Homo sapiens, UniProt P41595).
T3 construct: expressed in transfected cells; host or cells: HEK 293
Description: Activity at the 5-HT2B receptor (FLIPR calcium, HEK 293 cells). The format is cell-based.
Conditions: not given
As to the method: Activity at the 5-HT2B receptor was examined as previously described ([Luethi et al., 2018]). In summary, HEK 293 cells expressing the human 5-HT2B receptor were seeded at a density of 50,000 cells per well in 96-well poly-D-lysine-coated plates overnight at 37°C. The cells were then incubated in growth medium consisting of high glucose Dulbecco’s modified Eagle’s medium (DMEM) (Invitrogen, Zug, Switzerland), 10% fetal calf serum (non-dialyzed, heat-inactivated), 250 mg/l Geneticin and 10 ml/l PenStrep (Gibco), overnight at 37°C. After removal of the growth medium via snap inversion, calcium indicator Fluo-4-solution (100 µl) was injected into each well (Molecular Probes, Eugene, OR, USA) and incubated for 45 min at 31°C. Afterwards, the Fluo-4 solution was removed (snap inversion) and a further 100 µl of the Fluo-4 solution was added and incubated (45 min, 31°C). Thereafter, using the EMBLA cell washer, the cells were washed just before testing with HBSS and 20 mM HEPES and exposed to 100 µl of assay buffer. The well plate was positioned in the FLIPR and while online, 25 µl of the test compounds diluted in assay buffer were added. Concentration-response curves were calculated using nonlinear regression, and EC50 values were obtained. The maximal activity at the receptors was calculated relative to 5-HT activity which was defined as 100%.
For orientation: EC50 means the concentration needed to bring the measured effect to its halfway point. On to `COc1cc(OCC(F)(F)F)c(OC)cc1CCN` [2C-O-22, 2,5-dimethoxy-4-(2,2,2-trifluoroethoxy)phenethylamine], for which the EC50 is 250 ± 10 nM and the “Increase in 5-HT2B activation potency compared to 2C-O-21 (9)” value was 4 fold.

Take `COc1cc(OCc2ccccc2)c(OC)cc1CCN` [2C-O-27, 4-benzyloxy-2,5-dimethoxyphenethylamine]: the EC50 was 480 ± 190 nM.

With `C=CCOc1cc(OC)c(CC(C)N)cc1OC` (stereo not shown) [MALM, 4-allyloxy-2,5-dimethoxyamphetamine], the EC50 was 9.5 ± 3.3 nM and the “Higher 5-HT2B activation potency compared to TMA-2 (19)” value amounted to 28 fold.

Still in this test, the particulars now being: HEK293, relative to 5-HT = 100%; read-out: h5-HT2B Activation efficacy max ± SD.
Take `COc1cc(OCC(F)(F)F)c(OC)cc1CCN` [2C-O-22, 2,5-dimethoxy-4-(2,2,2-trifluoroethoxy)phenethylamine]: the Emax is 28 ± 20%.

`COc1cc(OCc2ccccc2)c(OC)cc1CCN` [2C-O-27, 4-benzyloxy-2,5-dimethoxyphenethylamine]: the Emax worked out at 39 ± 16%.

`C=CCOc1cc(OC)c(CC(C)N)cc1OC` (stereo not shown) [MALM, 4-allyloxy-2,5-dimethoxyamphetamine]: the Emax fell in the range of 85 to 101%.

The target in a further test is T4, 5-HT1A receptor (Homo sapiens, UniProt P08908).
T4 construct: expressed in transfected cells; host or cells: HEK 293 (membrane preparation)
T4 sequence (P08908 1-422): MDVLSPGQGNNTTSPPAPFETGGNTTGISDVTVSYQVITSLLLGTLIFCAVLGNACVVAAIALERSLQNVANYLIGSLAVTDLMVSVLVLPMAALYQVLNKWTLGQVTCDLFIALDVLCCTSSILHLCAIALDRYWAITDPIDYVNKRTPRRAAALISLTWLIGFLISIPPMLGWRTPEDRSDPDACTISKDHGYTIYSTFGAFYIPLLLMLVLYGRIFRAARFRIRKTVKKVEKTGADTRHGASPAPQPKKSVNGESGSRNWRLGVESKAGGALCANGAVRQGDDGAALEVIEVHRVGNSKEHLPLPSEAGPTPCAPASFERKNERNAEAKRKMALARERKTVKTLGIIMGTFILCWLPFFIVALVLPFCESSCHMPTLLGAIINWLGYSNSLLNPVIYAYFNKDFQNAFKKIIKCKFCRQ
As to the kind of experiment: Radioligand binding, 5-HT1A receptor ([3H]8-OH-DPAT).
Conditions: not given
`COc1cc(OCC(F)(F)F)c(OC)cc1CCN` [2C-O-22, 2,5-dimethoxy-4-(2,2,2-trifluoroethoxy)phenethylamine] displayed a Ki of 3300 ± 200 nM.

`COc1cc(OCc2ccccc2)c(OC)cc1CCN` [2C-O-27, 4-benzyloxy-2,5-dimethoxyphenethylamine]: the Ki came to 2700 ± 100 nM.

On to `C=CCOc1cc(OC)c(CC(C)N)cc1OC` (stereo not shown) [MALM, 4-allyloxy-2,5-dimethoxyamphetamine], for which the Ki is more than 5600 nM.

The next test addresses T5, 5-HT2C receptor (Homo sapiens, UniProt P28335).
T5 construct: expressed in transfected cells; host or cells: HEK 293 (membrane preparation)
T5 sequence (P28335 33-458): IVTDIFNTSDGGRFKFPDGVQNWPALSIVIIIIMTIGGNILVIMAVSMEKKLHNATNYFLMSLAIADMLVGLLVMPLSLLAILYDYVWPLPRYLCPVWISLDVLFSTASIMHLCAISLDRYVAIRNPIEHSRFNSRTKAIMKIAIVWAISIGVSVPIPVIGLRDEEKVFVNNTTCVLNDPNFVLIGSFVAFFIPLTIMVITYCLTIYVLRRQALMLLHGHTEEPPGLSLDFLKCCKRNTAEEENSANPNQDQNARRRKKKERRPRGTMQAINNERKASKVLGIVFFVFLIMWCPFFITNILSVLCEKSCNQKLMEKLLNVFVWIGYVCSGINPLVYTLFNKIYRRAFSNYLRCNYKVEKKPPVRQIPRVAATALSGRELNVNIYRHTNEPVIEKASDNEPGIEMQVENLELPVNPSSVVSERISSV
Description: biochemical. It counts as binding.
Conditions: not given
Take `C=CCOc1cc(OC)c(CC(C)N)cc1OC` (stereo not shown) [MALM, 4-allyloxy-2,5-dimethoxyamphetamine]: the “Enhancement of 5-HT2C binding affinity compared to TMA-2 (19)” value turned out to be 6 fold.

The same test, now with this note: [3H]mesulgerine; read-out: h5-HT2C Receptor binding Ki ± SD.
As for `COc1cc(OCC(F)(F)F)c(OC)cc1CCN` [2C-O-22, 2,5-dimethoxy-4-(2,2,2-trifluoroethoxy)phenethylamine], the Ki worked out at 1900 ± 400 nM.

As to `COc1cc(OCc2ccccc2)c(OC)cc1CCN` [2C-O-27, 4-benzyloxy-2,5-dimethoxyphenethylamine], the Ki was 110 ± 50 nM.

Turning to `C=CCOc1cc(OC)c(CC(C)N)cc1OC` (stereo not shown) [MALM, 4-allyloxy-2,5-dimethoxyamphetamine], the Ki came out at 900 ± 220 nM.

A further test deals with T6, α2A adrenergic receptor (Homo sapiens, UniProt P08913).
T6 construct: expressed in transfected cells; host or cells: Chinese hamster lung cell line (membrane preparation)
T6 sequence (P08913 1-465): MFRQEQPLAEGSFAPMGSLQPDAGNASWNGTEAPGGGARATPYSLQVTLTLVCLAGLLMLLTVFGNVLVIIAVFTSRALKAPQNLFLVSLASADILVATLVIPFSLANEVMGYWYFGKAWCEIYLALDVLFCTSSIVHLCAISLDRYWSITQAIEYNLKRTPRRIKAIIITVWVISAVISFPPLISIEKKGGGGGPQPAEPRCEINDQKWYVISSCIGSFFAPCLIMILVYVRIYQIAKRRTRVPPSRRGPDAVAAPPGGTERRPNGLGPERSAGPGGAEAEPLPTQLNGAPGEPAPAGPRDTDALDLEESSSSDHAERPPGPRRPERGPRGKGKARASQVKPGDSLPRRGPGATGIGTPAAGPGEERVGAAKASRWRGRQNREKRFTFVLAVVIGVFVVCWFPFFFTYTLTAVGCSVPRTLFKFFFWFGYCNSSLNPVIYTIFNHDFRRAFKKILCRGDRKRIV
As to the kind of experiment: Radioligand binding, α2A adrenergic receptor ([3H]rauwolscine).
Conditions: not given
`COc1cc(OCC(F)(F)F)c(OC)cc1CCN` [2C-O-22, 2,5-dimethoxy-4-(2,2,2-trifluoroethoxy)phenethylamine] came in with a Ki of 1800 ± 100 nM.

In the case of `COc1cc(OCc2ccccc2)c(OC)cc1CCN` [2C-O-27, 4-benzyloxy-2,5-dimethoxyphenethylamine], the Ki was 570 ± 30 nM.

Regarding `C=CCOc1cc(OC)c(CC(C)N)cc1OC` (stereo not shown) [MALM, 4-allyloxy-2,5-dimethoxyamphetamine], the Ki is more than 4800 nM.

(Values after PMC6893898, “Receptor Interaction Profiles of 4-Alkoxy-Substituted 2,5-Dimethoxyphenethylamines and Related Amphetamines” (Frontiers in Pharmacology, 2019).)
